Results on five compounds are retold here after publication PMC7891601 (Clinical Pharmacology and Therapeutics, 2020).

What is called AUC is the area under the concentration-time curve, a measure of exposure. Broadly, the Ki is the dissociation constant of the complex between target and ligand, obtained from inhibition or displacement.

Read-outs that look alike come from different tables or passages of the source. Some results are limits rather than exact numbers.

The format of data set [1] is in vivo, human. As to conditions: for CLr / AUC: adjusted geometric mean; for CLr: 0–24 h; for AUC: AUC0–24; for impact of metformin administration on CLr: control vs baseline; for mean plasma concentration (Cav): mean ± SEM.
Data set [2] deals with MATE2‐K (Homo sapiens, UniProt Q86VL8). In kind it is cell-based. To be noted: In vitro Ki of pyrimethamine, HEK293.
MATE2‐K (Homo sapiens, UniProt Q86VL8), sequence (Q86VL8 1-566 isoform Q86VL8-3): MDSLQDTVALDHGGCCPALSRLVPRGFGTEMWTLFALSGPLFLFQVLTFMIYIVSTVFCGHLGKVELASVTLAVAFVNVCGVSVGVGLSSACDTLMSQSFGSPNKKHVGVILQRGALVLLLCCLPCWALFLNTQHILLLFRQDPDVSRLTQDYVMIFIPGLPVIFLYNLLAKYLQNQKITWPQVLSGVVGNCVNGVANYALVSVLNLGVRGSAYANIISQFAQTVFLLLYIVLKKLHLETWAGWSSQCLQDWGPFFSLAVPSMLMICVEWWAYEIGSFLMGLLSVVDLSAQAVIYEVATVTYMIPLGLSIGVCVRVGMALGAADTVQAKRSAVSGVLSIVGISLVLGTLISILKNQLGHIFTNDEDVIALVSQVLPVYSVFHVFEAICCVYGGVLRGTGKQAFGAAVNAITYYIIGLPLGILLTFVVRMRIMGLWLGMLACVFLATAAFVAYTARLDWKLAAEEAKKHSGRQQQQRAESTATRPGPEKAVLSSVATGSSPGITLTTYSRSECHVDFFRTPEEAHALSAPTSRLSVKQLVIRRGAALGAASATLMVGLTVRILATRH
Data set [3] deals with MATE2‐K. To be noted: read-out: Ki for MATE2‐K‐mediated creatinine uptake; cited from earlier work.
For data set [4], the system named is MATE1. To be noted: read-out: Ki for MATE1‐mediated creatinine uptake; cited from earlier work.
The target in the next data set is T1, OAT3 (Homo sapiens, UniProt Q8TCC7).
T1 sequence (Q8TCC7 1-542): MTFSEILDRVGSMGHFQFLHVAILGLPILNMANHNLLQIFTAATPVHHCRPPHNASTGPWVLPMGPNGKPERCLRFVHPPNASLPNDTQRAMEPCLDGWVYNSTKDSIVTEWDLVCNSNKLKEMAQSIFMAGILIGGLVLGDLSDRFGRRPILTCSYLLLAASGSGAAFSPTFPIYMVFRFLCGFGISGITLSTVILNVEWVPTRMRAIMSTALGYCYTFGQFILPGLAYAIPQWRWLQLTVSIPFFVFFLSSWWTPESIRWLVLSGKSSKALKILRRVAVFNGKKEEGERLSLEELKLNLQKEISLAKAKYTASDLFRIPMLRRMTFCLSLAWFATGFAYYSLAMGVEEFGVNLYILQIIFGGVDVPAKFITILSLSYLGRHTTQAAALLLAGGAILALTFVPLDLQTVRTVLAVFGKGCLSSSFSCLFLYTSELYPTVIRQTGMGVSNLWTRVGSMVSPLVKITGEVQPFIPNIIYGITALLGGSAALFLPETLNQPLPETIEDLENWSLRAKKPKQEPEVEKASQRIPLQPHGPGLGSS
As to the kind of experiment: Inhibition of ES uptake in OAT3-expressing HEK293 cells. The class given is cell-based.

A further data set addresses T2, OAT1 (Homo sapiens, UniProt Q4U2R8).
T2 sequence (Q4U2R8 1-563): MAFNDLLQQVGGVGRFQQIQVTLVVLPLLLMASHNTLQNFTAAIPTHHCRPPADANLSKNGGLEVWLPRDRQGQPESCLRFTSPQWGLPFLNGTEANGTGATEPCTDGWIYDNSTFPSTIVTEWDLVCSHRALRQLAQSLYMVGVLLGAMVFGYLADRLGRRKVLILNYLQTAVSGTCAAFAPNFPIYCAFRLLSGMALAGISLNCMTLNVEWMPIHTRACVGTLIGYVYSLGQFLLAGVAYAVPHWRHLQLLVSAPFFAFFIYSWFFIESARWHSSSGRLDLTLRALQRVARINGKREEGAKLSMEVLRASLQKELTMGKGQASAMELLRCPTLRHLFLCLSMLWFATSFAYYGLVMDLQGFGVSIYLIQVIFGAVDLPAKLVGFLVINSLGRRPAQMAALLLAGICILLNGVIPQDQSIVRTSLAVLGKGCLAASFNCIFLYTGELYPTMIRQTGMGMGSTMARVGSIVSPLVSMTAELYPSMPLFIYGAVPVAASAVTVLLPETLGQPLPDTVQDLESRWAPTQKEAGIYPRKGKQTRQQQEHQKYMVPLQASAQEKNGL
As to the kind of experiment: Inhibition of PAH uptake in OAT1-expressing HEK293 cells. In kind it is cell-based.

The next data set has as its target T3, OCT2 (Homo sapiens, UniProt O15244).
T3 sequence (O15244 1-555): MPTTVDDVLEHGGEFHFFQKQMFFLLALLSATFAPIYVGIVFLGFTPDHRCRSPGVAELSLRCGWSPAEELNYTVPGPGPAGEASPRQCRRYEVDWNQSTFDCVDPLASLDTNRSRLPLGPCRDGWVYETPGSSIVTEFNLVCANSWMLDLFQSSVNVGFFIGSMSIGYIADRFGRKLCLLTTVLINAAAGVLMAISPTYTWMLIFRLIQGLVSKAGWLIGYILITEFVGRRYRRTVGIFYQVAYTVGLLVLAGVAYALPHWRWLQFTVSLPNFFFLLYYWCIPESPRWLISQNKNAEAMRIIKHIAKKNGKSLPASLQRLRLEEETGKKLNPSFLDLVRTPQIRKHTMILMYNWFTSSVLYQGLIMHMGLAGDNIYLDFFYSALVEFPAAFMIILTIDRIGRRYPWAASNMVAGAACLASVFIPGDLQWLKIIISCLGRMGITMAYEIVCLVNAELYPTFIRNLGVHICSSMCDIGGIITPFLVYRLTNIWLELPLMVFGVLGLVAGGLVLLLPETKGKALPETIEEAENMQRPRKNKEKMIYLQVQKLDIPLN
The class given is cell-based. To be noted: In vitro Ki of pyrimethamine, HEK293.

For data set [5] the following is noted: in humans; cited from earlier work.
The target of data set [6] is T4, SLC29A1/equilibrative nucleoside transporter 1 (Homo sapiens, UniProt Q99808).
T4 sequence (Q99808 2-456): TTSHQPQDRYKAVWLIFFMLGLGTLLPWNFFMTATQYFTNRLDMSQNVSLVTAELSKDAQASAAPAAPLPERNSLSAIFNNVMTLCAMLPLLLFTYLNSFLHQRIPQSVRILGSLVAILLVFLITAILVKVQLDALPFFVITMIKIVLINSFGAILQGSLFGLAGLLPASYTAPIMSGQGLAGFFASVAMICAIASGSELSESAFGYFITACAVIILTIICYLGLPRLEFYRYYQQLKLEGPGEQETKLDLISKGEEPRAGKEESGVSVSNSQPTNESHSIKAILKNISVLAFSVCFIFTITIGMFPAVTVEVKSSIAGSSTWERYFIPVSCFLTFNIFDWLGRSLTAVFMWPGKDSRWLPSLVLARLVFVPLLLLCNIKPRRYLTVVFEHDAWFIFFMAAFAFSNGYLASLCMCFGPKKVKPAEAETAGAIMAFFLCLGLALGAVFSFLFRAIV
The experiment in a line: Uptake of m1A in HEK293 cells with and without inhibitors. As to conditions: m1A 100 μM, HEK293, 15 min, inhibitor 10 μM. The class given is cell-based.

Data set [7] addresses T5, MATE1 (Homo sapiens, UniProt Q96FL8).
T5 sequence (Q96FL8 1-570): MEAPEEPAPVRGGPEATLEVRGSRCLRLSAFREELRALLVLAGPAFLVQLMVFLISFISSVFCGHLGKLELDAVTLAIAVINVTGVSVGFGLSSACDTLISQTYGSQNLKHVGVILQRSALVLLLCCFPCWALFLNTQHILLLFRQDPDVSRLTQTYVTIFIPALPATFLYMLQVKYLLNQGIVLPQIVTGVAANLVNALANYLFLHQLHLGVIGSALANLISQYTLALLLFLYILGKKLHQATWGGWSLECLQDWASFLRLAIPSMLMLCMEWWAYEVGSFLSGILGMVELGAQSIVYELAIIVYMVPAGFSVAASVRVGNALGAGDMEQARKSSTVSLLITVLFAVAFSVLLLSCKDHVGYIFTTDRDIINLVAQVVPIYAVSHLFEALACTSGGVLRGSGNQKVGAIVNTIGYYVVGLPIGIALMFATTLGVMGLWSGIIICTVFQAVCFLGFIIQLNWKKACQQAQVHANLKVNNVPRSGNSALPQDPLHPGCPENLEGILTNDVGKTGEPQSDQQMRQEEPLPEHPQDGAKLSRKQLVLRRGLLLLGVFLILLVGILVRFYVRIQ
In kind it is cell-based. As to conditions: In vitro Ki of pyrimethamine, 2 min, HEK293.

A further data set deals with OAT2. To be noted: read-out: half‐maximal inhibitory concentration, OAT2; cited from earlier work.
Another data set has as its system MATE1/2‐K. The experiment in a line: Nonlinear regression of CLr ratio vs pyrimethamine plasma concentration. In kind it is in vivo, human. As to conditions: regression against pyrimethamine Cav.
Where [8] appears, read: control phase (metformin 500 mg alone).
The mark [9] stands for this setting: pyrimethamine 10 mg + metformin.
[10] abbreviates: pyrimethamine 25 mg + metformin.
Setting [11] is: pyrimethamine 75 mg + metformin.

On to `Cc1ncc(CO)c(C(=O)O)c1O` [PDA, pyridoxic acid], for which the CLr in data set [1] (setting [8]) is 545.1 mL/min; in data set [1] (setting [9]) it was 584.6 mL/min; in data set [1] (setting [10]) it was 603.1 mL/min; in data set [1] (setting [11]) it was 423.7 mL/min. In addition, the AUC in [1] (setting [8]) came to 0.2912 µM·h; in data set [1] (setting [9]), 0.2142 µM·h; in data set [1] (setting [10]) it was 0.1772 µM·h; in data set [1] (setting [11]), 0.1647 µM·h. Besides, in data set [1] (pyrimethamine 75 mg vs control), the “decrease in CLr by pyrimethamine” value stood at 22%.

Consider `Cn1cnc2c(ncn2[C@@H]2O[C@H](CO)[C@@H](O)[C@H]2O)c1=N` [m^1A, N ^1‐methyladenosine], for which, in data set [1] (assumed from CLr vs creatinine clearance at 75 mg), the “contribution of the tubular secretion” value was 41%. Besides, the “CLr relative to creatinine clearance” value in [1] (control conditions, vs corresponding creatinine clearance) stood at 1.3 fold. Also, the “impact of metformin administration on CLr” value in [1] is given as less than 7%.

With `CN(C)C(=N)N=C(N)N` [Metformin, metformin], the “decrease in CLr by pyrimethamine” value amounted to 12% in [1] (pyrimethamine 10 mg vs control), 34% in [1] (pyrimethamine 25 mg vs control) and 55% in data set [1] (pyrimethamine 75 mg vs control). Also, the “increase in AUC by pyrimethamine” value in data set [1] (pyrimethamine 25 mg vs control) amounted to 24%; in [1] (pyrimethamine 75 mg vs control), 69%. In addition, the AUC in data set [1] (setting [11]) came to 122.9 µM·h.

In the case of `CCc1nc(N)nc(N)c1-c1ccc(Cl)cc1` [pyrimethamine], the inhibitory constant (Ki) on MATE2‐K [2] (substrate 1‐NMN 10 μM, 2 min) is 82.1 ± 18 nM; at MATE2‐K [2] (substrate m1A 100 μM, 30 min), 68 ± 15 nM; at MATE2‐K [2] (substrate metformin 10 μM, 2 min), 94.1 ± 16 nM; in the data set with MATE2‐K [3] it was 220 nM; in the data set with MATE1 [4] it was 170 nM; at OCT2 (OCT2, substrate 1‐NMN 10 μM, 2 min) it was 41200 ± 9100 nM. Moreover, the Ki at OCT2 (OCT2, substrate m1A 100 μM, 30 min) was 466 ± 43 nM; at OCT2 (OCT2, substrate metformin 10 μM, 2 min) it was 37900 ± 5600 nM; at MATE1 [7] (MATE1, substrate 1‐NMN 10 μM) it was 125 ± 26 nM; on MATE1 [7] (MATE1, substrate metformin 10 μM), 154 ± 29 nM. For the same compound, the IC50 at OAT3 was 9690 ± 2270 nM; against OAT1, 241000 ± 55000 nM; in the data set on OAT2, greater than 100000 nM. Further, the “mean plasma concentration (Cav)” value in data set [1] (10 mg single oral dose) is 287 ± 24 nM; in data set [1] (25 mg single oral dose), 781 ± 31 nM; in data set [1] (75 mg single oral dose) it was 2470 ± 180 nM. Further, the “elimination half‐life” value in [5] was “ca. 100 hours”. Also, the “effect of inhibitor on uptake of m1A (ENT1)” value in data set [6] is reported as “minimal”.

On to `CN1CC(=O)NC1=N` [Creatinine, creatinine], for which the “f PYR (contribution of tubular secretion to urinary excretion)” value in the data set on MATE1/2‐K is on record as 26%. Further, in [1], the “impact of metformin administration on CLr” value was less than 7%.
